Test [1] relates to prokaryotic 20S proteasome. In words: Dialysis assay for irreversible inhibition, prokaryotic 20S proteasome. It is filed as biochemical, Methanosarcina thermophile. The procedure:
Materials. Highly purified tea polyphenols (−)-EGCG (>95%), (−)-GCG (>98%), (−)-ECG (>98%), (−)-CG (>98%), fetal calf serum, propidium iodide, 3-[4,5-dimethylthiazol-2-yl]-2,5-diphenyltetrazolium bromide (MTT), RNase A, and DMSO were purchased from Sigma (St. Louis, Mo.). (+)-EGCG, benzyl-protected-(+)-EGCG, (+)-GCG, (−)-EGCG-amide, and (+)-EGCG-amide were prepared by enantioselective synthesis (see below). Purified 20S eukaryotic proteasome from rabbit was purchased from BOSTON BIOCHEM (Cambridge, Mass.). Purified 20S prokaryotic proteasome (Methanosarcina thermophile, Recombinant, E. coli) was purchased from CALBIOCHEM (La Jolla, Calif.). Fluorogenic peptide substrates Suc-Leu-Leu-Val-Tyr-AMC (for the proteasomal chymotrypsin-like activity) was obtained from Calbiochem (La Jolla, Calif.). RPMI 1640 medium, Dulbecco's modified Eagle's medium, MEM non-essential amino acids solution, MEM-sodium pyruvate solution, penicillin, and streptomycin were from INVITROGEN (Carlsbad, Calif.). Monoclonal antibody to p27^Kip was purchased from PHARMINGEN (San Diego, Calif.); polyclonal antibodies to IκB-α, Bax and actin, and monoclonal antibody to ubiquitin were from SANTA CRUZ Biotechnology Inc. (Santa Cruz, Calif.).
Assays for irreversible inhibition. To measure the effect of dialysis on (−)-EGCG-mediated proteasome inhibition, 20S prokaryotic proteasome (2 μg) was incubated with 10 μM (−)-EGCG or the control solvent (H2O) in 50 mM Tris-HCl, pH 7.5 for 1 hour. This was then incubated at 4° C. either without or with dialysis overnight using a 10,000 MWCO Pierce Slide-A-Lyzer Dialysis Cassette (Rockford, Ill.) in a rotating bath of 50 mM Tris-HCl, pH 7.5. The proteasomal chymotrypsin-like activity was then assayed as previously described. As a control, an EGCG solution (without purified 20S proteasome) was dialyzed overnight, followed by measurement of the effects on inhibition of the proteasome activity.
To investigate the nature of (−)-EGCG-mediated proteasome inhibition, a dialysis experiment was performed. […]

In test [2] the test system is MCF-7 cells. In words: Proteasome inhibition / p27 accumulation in MCF-7 cells. It is filed as cell-based, human.
In test [3] the target is purified 20S proteasome (UniProt Q9P992). In words: Inhibition of chymotrypsin-like activity of purified 20S proteasome (source not stated). To be noted: 1 μM. Type of test: biochemical. Details: other: 1 μM; other: 10 μM. The procedure:
Inhibition of purified 20S proteasome activity by natural or synthetic GTPs. Purified prokaryotic (0.5 μg) or eukaryotic (0.02 μg) 20S proteasome was incubated with 20 μM fluorogenic peptide substrate, Suc-Leu-Leu-Val-Tyr-AMC for 30 min at 37° C. in […] of assay buffer (50 mM Tris-HCl, pH 7.5), with or without a natural or synthetic tea polyphenol. After incubation, production of hydrolyzed 7-amido-4-methyl-coumarin (AMC) groups was measured using a multi-well plate VERSAFLUOR Fluorometer with an excitation filter of 380 nm and an emission filter of 460 nm (BIO-RAD), and a multi-well plate reader Wallac 1420 VICTORTM^2 with an excitation filter of 355 nm and an emission filter of 460 nm (EG&G WALLAC).

In test [4] the test system is LNCaP cells. In words: Cell-free caspase-3 activity assay, LNCaP cells. To be noted: 10 μM, normalized to 0 hours. Type of test: cell-based, human. The procedure: (§1) To examine whether (+)-EGCG could induce apoptosis only in LNCaP, but not DU-145, cells, both cell lines were treated with 10 μM (+)-EGCG for 0, 24, 48 or 72 hours, followed by performance of cell-free caspase-3 activity assay. Cells were harvested at each sequential time-point and activity was determined by incubating whole cell extracts with caspase-3 substrate and measuring free AMCs (FIG. 20C). All the time-points were normalized to 0 hours. (+)-EGCG activated caspase-3 in LNCaP cells in a time-dependent manner: by 2.5-, 3.5- and 6-fold at 24, 48 and 72 hours, respectively (FIG. 20C). In contrast, little caspase-3 activity was detected in (+)-EGCG-treated in DU145 cells: only ˜2-fold induction at 72 hours (FIG. 20C). In the same experiment, (−)-EGCG at 10 μM was used as a control. […] Therefore, the abilities of (+)-EGCG to activate apoptotic program in these prostate cancer cell lines are correlated well to their abilities to accumulate Bax protein levels to a critical high threshold (compare FIGS. 20C and 20D vs. 20B). Values are means of triplicate independent experiments and error bars denote standard deviations.

Test [5] has as its system DU145 cells. In words: Cell-free caspase-3 activity assay, DU145 cells. To be noted: 10 μM, 72 hours, normalized to 0 hours. Type of test: cell-based, human. The method, then: as §1

purified 20S proteasome, sequence (Q9P992 whole entry): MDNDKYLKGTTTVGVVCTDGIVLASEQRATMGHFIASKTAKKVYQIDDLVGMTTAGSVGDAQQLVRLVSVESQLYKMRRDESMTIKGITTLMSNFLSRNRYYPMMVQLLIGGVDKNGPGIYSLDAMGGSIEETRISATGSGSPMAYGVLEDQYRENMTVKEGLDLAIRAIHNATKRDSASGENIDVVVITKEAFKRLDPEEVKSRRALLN

Turning to `O=C(O[C@@H]1Cc2c(O)cc(O)cc2O[C@@H]1c1cc(O)c(O)c(O)c1)c1cc(O)c(O)c(O)c1` [(−)-EGCG, (−)-epigallocatechin-3-gallate, reference compound], the “inhibition of chymotrypsin-like activity” value is listed as 81% in test [1] (10 μM, 1 h pre-incubation, overnight dialysis); 85% in test [1] (10 μM, absence of dialysis); “no inhibition was observed” in test [1] (compound dialyzed overnight before addition to proteasome (EGCG pre)).

As to `O=C(N[C@@H]1Cc2c(O)cc(O)cc2O[C@@H]1c1cc(O)c(O)c(O)c1)c1cc(O)c(O)c(O)c1` [(−)-EGCG-amide, (−)-[2R,3R]-N-[5,7-Dihydroxy-2-(3,4,5-trihydroxyphenyl)-chroman-3-yl]-3,4,5-trihydroxybenzamide], in test [2], the “inhibition of proteasome activity / accumulation of p27” value is recorded as “able to inhibit the proteasome activity”.

Consider `O=C(OC1Cc2c(O)cc(O)cc2OC1c1cc(O)c(O)c(O)c1)c1cc(O)c(O)c(O)c1` (single isomer, unassigned; (+)) [(+)-GCG], for which, in test [3], the “inhibition of proteasomal activity” value was 70%.

Consider `O=C(OC1Cc2c(O)cc(O)cc2OC1c1cc(O)c(O)c(O)c1)c1cc(O)c(O)c(O)c1` (single isomer, unassigned; (+)) [(+)-EGCG], for which the figures for the caspase-3 activation in test [4] (24 hours), in test [4] (48 hours) and in test [4] (72 hours) were 2.5 fold, 3.5 fold and 6 fold, respectively. Further, the “inhibition of proteasomal activity” value in test [3] is given as 86%. Moreover, the caspase-3 induction in test [5] is reported as ~2 fold.
